Reference: US7498406B2, “Substantially cell membrane impermeable compound and use thereof” (priority 1999, dated 2009)

Assays:
BxPc3 = test: Viability of cultured cells, 72 hr; assay type: cell-based, human; details: 5% FCS, 0 to 1 mM
Protocol: (§1) FIG. 19. Effect of GSAO on proliferation of non-endothelial cells. 15,000 BxPC-3 (part A), HT1080 (part B), 3T3 (part C) or BVSM (part D) cells per well were seeded into gelatinised 24-well culture plates and allowed to attach for 24 hr. The media was then replaced with DMEM containing 0 to 1 mM GSAO or GSAA and either 5% BCS (part D) or 5% FCS (parts A, B and C). Cells were cultured for 72 hr and then dispersed and counted. The dotted lines indicate the cell number in control wells containing DMEM and 2% BCS (part D) or 2% FCS (parts A, B and C) which represented no to limited proliferation. The data points and errors represent the mean and range of duplicate wells.
(§2) BCE (Folkman et al. 1979), BAE, BxPC-3 (ATCC, Bethesda, Md.), HT1080 (Jiang et al., 1999), 3T3 (ATCC, Bethesda, Md.) and BVSM (Hogg et al., 1997) cells were harvested and cultured as indicated. […] Cells were cultured for 0 to 72 hr in 10% CO2 at 37° C. then dispersed in trypsin/EDTA (GibcoBRL, Granc Island, N.Y.), resuspended in Coulter balanced electrolyte solution and counted with a Z1 Coulter counter (Coulter Corp., Miami, Fla.) in all experiments there were two control wells containing DMEM with 1% GPS and either 5% BCS for BCE cells, 2% BCS for BAE and BVSM cells, or 2% FCS for BxPC-3, HT1080 and 3T3 cells. […]

HT1080 = test: Viability of cultured cells, 72 hr; assay type: cell-based, human; details: 5% FCS, 0 to 1 mM
Protocol: as §1, §2

## N[C@@H](CCC(=O)N[C@@H](CSCC(=O)Nc1ccc([As](=O)(O)O)cc1)C(=O)NCC(=O)O)C(=O)O [GSAA, 4-(N-(S-glutathionylacetyl)amino)phenylarsonic acid, reference compound]
BxPc3
  Viability IC50: no significant effect
HT1080
  Viability IC50: no significant effect
